Assay results taken from ChEMBL document CHEMBL2434868, “Chemical investigation of an antimalarial Chinese medicinal herb Picrorhiza scrophulariiflora” (Bioorg Med Chem Lett, 2013).

These molecules were tested on Plasmodium falciparum (assay: Antimalarial activity against ring stage of Plasmodium falciparum 3D7 infected in erythrocytes assessed as [3H]-hypoxanthine incorporation after 48 hrs by liquid scintillation counting analysis). Conditions: not given.
Type: functional, organism-based

SMILES | IC50 | IC90 | IC95
O=C(/C=C/c1ccccc1)OC[C@H]1O[C@@H](OC[C@@H](O)[C@@H](O)[C@H](O)[C@H](O)CO)[C@H](O)[C@@H](O)[C@@H]1O | > 25 µM | – | –
CC(=O)c1ccc(O[C@@H]2O[C@H](COC(=O)/C=C/c3ccc(O)cc3)[C@@H](O)[C@H](O)[C@H]2O)cc1 | > 25 µM | – | –
CC(=O)OC(C)(C)CCC(=O)[C@](C)(O)[C@H]1[C@H](O)C[C@@]2(C)[C@@H]3CC=C4[C@H](C[C@H](O[C@@H]5O[C@H](CO)[C@@H](O)[C@H](O)[C@H]5O)[C@H](O)C4(C)C)[C@]3(C)CC[C@]12C | > 25 µM | – | –
COc1cc(/C=C/C(=O)OC[C@H]2O[C@@H](Oc3ccc(C(C)=O)cc3OC)[C@H](O)[C@@H](O)[C@@H]2O)ccc1O | > 25 µM | – | –
COc1cc(C(=O)O)ccc1O[C@@H]1O[C@H](COC(=O)/C=C/c2ccccc2)[C@@H](O)[C@H](O)[C@H]1O | > 25 µM | – | –
CC(=O)OC(C)(C)/C=C/C(=O)[C@](C)(O)[C@H]1[C@H](O)C[C@@]2(C)[C@@H]3CC=C4[C@H](C[C@H](O[C@@H]5O[C@H](CO)[C@@H](O)[C@H](O)[C@H]5O)[C@H](O)C4(C)C)[C@]3(C)CC[C@]12C | 8.3 µM | 17.3 µM | 23.5 µM
O=C(/C=C/c1ccc(O)c(O)c1)OC[C@H]1O[C@@H](OC[C@@H](O)[C@@H](O)[C@H](O)[C@H](O)CO)[C@H](O)[C@@H](O)[C@@H]1O | > 25 µM | – | –
COc1cc(C(C)=O)ccc1O[C@@H]1O[C@H](COC(=O)/C=C/c2ccccc2)[C@@H](O)[C@H](O)[C@H]1O | > 25 µM | – | –
COc1cc(C(C)=O)ccc1O[C@@H]1O[C@H](COC(=O)/C=C/c2ccc(O)cc2)[C@@H](O)[C@H](O)[C@H]1O | > 25 µM | – | –
O=C(/C=C/c1ccccc1)OC[C@H]1O[C@@H](O[C@@H]2OC=C[C@H]3[C@H](O)[C@@H]4O[C@]4(CO)[C@@H]23)[C@H](O)[C@@H](O)[C@@H]1O [PICROSIDE I] | > 25 µM | – | –

The molecules below were run on NFF (assay: Cytotoxicity against human NFF cells up to 100 uM after 3 days by SRB assay). Conditions: 72 h.
Type: cell-based

SMILES | Activity
CC(=O)OC(C)(C)/C=C/C(=O)[C@](C)(O)[C@H]1[C@H](O)C[C@@]2(C)[C@@H]3CC=C4[C@H](C[C@H](O[C@@H]5O[C@H](CO)[C@@H](O)[C@H](O)[C@H]5O)[C@H](O)C4(C)C)[C@]3(C)CC[C@]12C | Non-toxic
